# Experimental data published in PubChem BioAssay AID248 (DTP/NCI, 2004).
# Several values for one entry are separate records, joined by “and”; a condition that tells them apart may be missing. Equal entries are not always repeated. Inconclusive results and toxic doses are left out.
# Test system: L1210 leukemia ip in BDF1 mice, survival T/C
# Assay: NCI In Vivo Anticancer Drug Screen. Data for tumor model L1210 Leukemia (intraperitoneal) in B6D2F1 (BDF1) mice
# Conditions: endpoint: mean survival time, higher = longer survival
# In short: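 Ratio derived from survival: compound-dosed mice over vehicle-dosed mice, all bearing a transplantable tumor.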
# [1] = dose: 100.0 mg/kg/injection, schedule: Q04DX003 (ip), vehicle: Klucel (hydroxypropylcellulose) (HPC)
# [2] = dose: 200.0 mg/kg/injection, schedule: Q04DX003 (ip), vehicle: Klucel (hydroxypropylcellulose) (HPC)
# [3] = dose: 400.0 mg/kg/injection, schedule: Q04DX003 (ip), vehicle: Klucel (hydroxypropylcellulose) (HPC)
# [4] = dose: 100.0 mg/kg/injection, schedule: Q01DX001 (ip), vehicle: saline
# [5] = dose: 200.0 mg/kg/injection, schedule: Q01DX001 (ip), vehicle: saline
# [6] = dose: 400.0 mg/kg/injection, schedule: Q01DX001 (ip), vehicle: saline
smiles,measurement,setting,value
CCC(=O)c1ccc(N=Nc2c(N)nc(N)[nH]c2=O)cc1,T/C,"dose: 100.0 mg/kg/injection, schedule: Q01DX001 (ip), vehicle: carboxymethylcellulose (CMC)",101 % of control
same,T/C,"dose: 200.0 mg/kg/injection, schedule: Q01DX001 (ip), vehicle: carboxymethylcellulose (CMC)",108 % of control
same,T/C,"dose: 400.0 mg/kg/injection, schedule: Q01DX001 (ip), vehicle: carboxymethylcellulose (CMC)",103 % of control
COc1cc([N+](=O)[O-])ccc1C,T/C,"dose: 100.0 mg/kg/injection, schedule: Q01DX009 (ip), vehicle: other",111 % of control
same,T/C,"dose: 100.0 mg/kg/injection, schedule: Q04DX003 (ip), vehicle: other",97 % of control
same,T/C,"dose: 200.0 mg/kg/injection, schedule: Q01DX009 (ip), vehicle: other",98 % of control
same,T/C,"dose: 200.0 mg/kg/injection, schedule: Q04DX003 (ip), vehicle: other",90 % of control
same,T/C,"dose: 400.0 mg/kg/injection, schedule: Q01DX009 (ip), vehicle: other",104 % of control
same,T/C,"dose: 400.0 mg/kg/injection, schedule: Q04DX003 (ip), vehicle: other",88 % of control
O=[As](O)(O[As](=O)(O)c1ccccc1)c1ccccc1,T/C,"dose: 5.0 mg/kg/injection, schedule: Q01DX001 (ip), vehicle: saline",103 % of control
same,T/C,"dose: 10.0 mg/kg/injection, schedule: Q01DX001 (ip), vehicle: saline",103 % of control
same,T/C,"dose: 20.0 mg/kg/injection, schedule: Q01DX001 (ip), vehicle: saline",103 % of control
same,T/C,"dose: 40.0 mg/kg/injection, schedule: Q01DX001 (ip), vehicle: saline",101 % of control
Cc1cc(=O)n2c3c(c(N)ccc13)OC2,T/C,"dose: 100.0 mg/kg/injection, schedule: Q01DX009 (ip), vehicle: Klucel (hydroxypropylcellulose) (HPC)",108 % of control
same,T/C,[1],93 % of control
same,T/C,"dose: 200.0 mg/kg/injection, schedule: Q01DX009 (ip), vehicle: Klucel (hydroxypropylcellulose) (HPC)",97 % of control
same,T/C,[2],100 % of control
same,T/C,"dose: 400.0 mg/kg/injection, schedule: Q01DX009 (ip), vehicle: Klucel (hydroxypropylcellulose) (HPC)",93 % of control
same,T/C,[3],97 % of control
Nc1c(I)cc([N+](=O)[O-])cc1I,T/C,[1],95 % of control
same,T/C,[2],93 % of control
same,T/C,[3],98 % of control
CC1(C)C(=C(C#N)C#N)C(C)(C)C1=C(C#N)C#N,T/C,[4],114 % of control
same,T/C,[5],96 % of control
same,T/C,[6],90 % of control
IC[P+](c1ccccc1)(c1ccccc1)c1ccccc1,T/C,"dose: 75.0 mg/kg/injection, schedule: Q01DX001 (ip), vehicle: carboxymethylcellulose (CMC)",106 % of control
O=C(c1ccccc1)C1(Br)CCC1,T/C,"dose: 100.0 mg/kg/injection, schedule: Q01DX009 (ip), vehicle: saline sonified",101 % of control
same,T/C,"dose: 200.0 mg/kg/injection, schedule: Q01DX009 (ip), vehicle: saline sonified",97 % of control
same,T/C,"dose: 400.0 mg/kg/injection, schedule: Q01DX009 (ip), vehicle: saline sonified",101 % of control
O=S(=O)(c1ccccc1)C1CC1(c1ccccc1)c1ccccc1 (configuration not stated),T/C,[4],92 % of control
same,T/C,[5],93 % of control
same,T/C,[6],90 % of control
C[NH-].C[NH-].[Br][Pt+2][Br],T/C,"dose: 0.62 mg/kg/injection, schedule: Q01DX009 (ip), vehicle: water",118 % of control and 123 % of control
same,T/C,"dose: 1.5 mg/kg/injection, schedule: Q01DX001 (ip), vehicle: other",108 % of control
same,T/C,"dose: 1.5 mg/kg/injection, schedule: Q01DX009 (ip), vehicle: other",115 % of control
same,T/C,"dose: 2.0 mg/kg/injection, schedule: Q01DX009 (ip), vehicle: other",161 % of control
same,T/C,"dose: 3.0 mg/kg/injection, schedule: Q01DX001 (ip), vehicle: other",117 % of control
same,T/C,"dose: 3.0 mg/kg/injection, schedule: Q01DX005 (ip), vehicle: saline with Tween-80",105 % of control
same,T/C,"dose: 3.0 mg/kg/injection, schedule: Q01DX009 (ip), vehicle: other",153 % of control
same,T/C,"dose: 4.5 mg/kg/injection, schedule: Q01DX009 (ip), vehicle: other",95 % of control
same,T/C,"dose: 5.0 mg/kg/injection, schedule: Q01DX009 (ip), vehicle: water",98 % of control
same,T/C,"dose: 6.0 mg/kg/injection, schedule: Q01DX001 (ip), vehicle: other",117 % of control
same,T/C,"dose: 6.0 mg/kg/injection, schedule: Q01DX009 (ip), vehicle: other",98 % of control
same,T/C,"dose: 10.0 mg/kg/injection, schedule: Q01DX009 (ip), vehicle: water",115 % of control
same,T/C,"dose: 25.0 mg/kg/injection, schedule: Q01DX001 (ip), vehicle: other",124 % of control
same,T/C,"dose: 50.0 mg/kg/injection, schedule: Q01DX001 (ip), vehicle: other",95 % of control
CCCCOC(=O)c1ccc(OC(=O)Nc2ccc(OC)cc2Cl)cc1,T/C,"dose: 100.0 mg/kg/injection, schedule: Q04DX002 (ip), vehicle: saline",110 % of control
same,T/C,"dose: 200.0 mg/kg/injection, schedule: Q04DX002 (ip), vehicle: saline",104 % of control
same,T/C,"dose: 400.0 mg/kg/injection, schedule: Q04DX002 (ip), vehicle: saline",100 % of control
OC(c1cc2ccc(C(F)(F)F)cc2c2cc(C(F)(F)F)ccc12)C1CCCCN1 (configuration not stated),T/C,"dose: 12.5 mg/kg/injection, schedule: Q01DX009 (ip), vehicle: saline",93 % of control
same,T/C,"dose: 25.0 mg/kg/injection, schedule: Q01DX009 (ip), vehicle: saline",103 % of control
same,T/C,"dose: 50.0 mg/kg/injection, schedule: Q01DX009 (ip), vehicle: saline",108 % of control
